Reference: patent US5616684A, “Cyclic peptides and use thereof” (priority 1991, dated 1997)
Non-standard residues stand in square brackets, D forms with d. Residues, ends and D or L forms follow the SMILES beside them. *: point of attachment. 1Nal = N[C@@H](Cc1cccc2ccccc12)C(=O)O; d2Thi = N[C@H](Cc1cccs1)C(=O)O; dPhg = N[C@@H](C(=O)O)c1ccccc1; Bn = c1ccc(C*)cc1

Legend:
[1] = amide bond; 18-membered ring; HONB ester (HONB/DCC)/TEA; DMF; 5.0 mM; 4 steps
[2] = target: T1, endothelin receptor A (ETA) (Sus scrofa, UniProt Q29010); test: Assay of Affinity for Receptor (1): Binding Activity on ETA Receptor; set-up: key to Binding Activity on ET Receptor (R. act.) ETA: relative binding activity; reference cyclic pentapeptide = 1.0; conditions: specific activity, binding activity of cyclo[-D-Glu-Ala-D-aIle-Leu-D-Trp-] taken as 1.0; porcine heart membrane fraction, 125I-labeled endothelin-1, 25° C., 1 hour
T1 construct: A membrane fraction prepared from the porcine heart; from tissue; host or cells: porcine heart membrane fraction
T1 sequence (Q29010 21-427): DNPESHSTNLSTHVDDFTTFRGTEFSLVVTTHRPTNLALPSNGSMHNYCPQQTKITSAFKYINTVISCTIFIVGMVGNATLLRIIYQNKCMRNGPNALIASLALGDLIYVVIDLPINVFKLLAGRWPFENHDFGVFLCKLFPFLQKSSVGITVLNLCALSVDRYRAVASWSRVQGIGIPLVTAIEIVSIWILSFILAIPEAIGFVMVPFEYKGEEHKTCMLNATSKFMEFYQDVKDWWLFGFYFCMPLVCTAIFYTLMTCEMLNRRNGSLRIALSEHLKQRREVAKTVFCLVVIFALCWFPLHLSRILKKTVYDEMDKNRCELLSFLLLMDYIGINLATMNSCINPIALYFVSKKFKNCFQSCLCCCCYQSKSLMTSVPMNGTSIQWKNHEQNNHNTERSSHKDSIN
Summary of the method: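 Porcine heart membranes (0.15 mg/ml) incubated with 125I-endothelin-1 and test peptide for 1 h at 25 °C, then diluted with ice-cold buffer and pelleted at 12,000×g; bound radioactivity gamma-counted. Values expressed as specific activity relative to cyclo[-D-Glu-Ala-D-aIle-Leu-D-Trp-] set at 1.0.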

[3] = target: T2, endothelin receptor B (ETB) (Bos taurus, UniProt P28088); test: Assay of Affinity for Receptor (2): Binding Activity on ETB Receptor *1; set-up: key: relative specific activity, Example 8 compound = 100; conditions: specific activity, binding activity of the compound of Example 8 taken as 100; bovine brain membrane fraction, 125I labeled endothelin-1, 25° C., 1 hour
T2 construct: A membrane fraction prepared from the bovine brain; from tissue; host or cells: bovine brain membrane fraction
T2 sequence (P28088 27-441): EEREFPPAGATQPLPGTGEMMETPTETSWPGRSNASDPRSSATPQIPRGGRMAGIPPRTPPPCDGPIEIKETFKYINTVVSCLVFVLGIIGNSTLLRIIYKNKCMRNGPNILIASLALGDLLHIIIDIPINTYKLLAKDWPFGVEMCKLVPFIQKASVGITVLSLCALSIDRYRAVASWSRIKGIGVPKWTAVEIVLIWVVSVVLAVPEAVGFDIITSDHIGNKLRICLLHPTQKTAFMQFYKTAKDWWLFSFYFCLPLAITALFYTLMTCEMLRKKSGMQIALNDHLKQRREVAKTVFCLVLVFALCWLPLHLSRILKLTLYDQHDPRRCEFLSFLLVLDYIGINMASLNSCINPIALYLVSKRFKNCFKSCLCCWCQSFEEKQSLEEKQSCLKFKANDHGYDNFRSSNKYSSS
Method: Assay of Affinity for Receptor (2) . . . Binding Activity on ETB Receptor *1
A membrane fraction prepared from the bovine brain was diluted to 0.15 mg/ml by using a buffer solution for assay, and 100 μl of the resulting suspension of the membrane fraction was poured into each assay tube to use for assay. To this suspension of the membrane fraction was added 2 μl of 5 nM ^125 I labeled endothelin-1 solution. Further, 3 μl of a test peptide solution was added thereto, followed by incubation at a temperature of 25° C. for 1 hour. Then, the resulting suspension was diluted with 900 μl of the buffer solution for assay cooled with ice, and thereafter separated into a supernatant and a precipitate by centrifugation at 12,000×g for 10 minutes. Cell membranes and an endothelin receptor B (ETB) embedded therein were contained in the precipitate, and radioactive iodine-labeled endothelin bound to the receptor was also recovered in the precipitate. Accordingly, the amount of radioactive iodine-labeled endothelin bound to the endothelin receptor B (ETB) was determined by measuring the amount of radioactive iodine contained in the precipitate with a gamma-ray counter. The numerical value of ETB shown in Table 1 is the value of specific activity, taking the binding activity of the compound of Example 8 on the receptor B as 100.

[4] = test system: ETB receptor (guinea pig kidney crude receptor membrane fraction); test: ETB Radio Receptor Assay *2; format: binding; conditions: relative activity (Example 8 given as 100), 125I-endothelin-1, 37° C., 90 minutes
Summary of the method: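 Crude membranes from guinea pig kidney (2.1 μg protein) incubated with 740 Bq ^125I-endothelin-1 and test sample, 90 min at 37 °C, in 50 mM Tris-HCl pH 7.4 with 0.1 mM PMSF, 1 mM EDTA, 0.2% BSA. Bound ligand separated by fast filtration and counted by gamma counter.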

Row | Compound | ring closure, yield after HPLC [1] | Binding Activity on ET Receptor (R. act.) ETA [2] | Binding Activity on ET Receptor (R. act.) ET8 *1 [3] | Binding Activity on ET Receptor (R. act.) ET8 *2 [4]
1 | cyclo[-D-Asp-Trp-Asp-D-tLeu-Leu-D-Trp-] | 42.8% |  |  | 
2 | CC(C)C[C@@H]1NC(=O)[C@@H](C(C)C)NC(=O)[C@H](CC(=O)O)NC(=O)[C@H](Cc2c[nH]c3ccccc23)NC(=O)[C@@H](CC(=O)O)NC(=O)[C@@H](Cc2c[nH]c3ccccc23)NC1=O [Example 52, Cyclo[--D--Asp--Trp--Asp--D--Val--Leu--D--Trp--]] (cyclo(D[dV]L[dW][dD]W)) |  | 75 | 240 | 100
3 | CC(C)C[C@@H]1NC(=O)[C@@H](CC(C)C)NC(=O)[C@H](COCc2ccccc2)NC(=O)[C@H](Cc2c[nH]c3ccccc23)NC(=O)[C@@H](CC(=O)O)NC(=O)[C@@H](Cc2c[nH]c3ccccc23)NC1=O [Example 38, Cyclo[--D--Asp--Trp--Ser(Bzl)--D--Leu--Leu--D--Trp--]] (cyclo(L[dW][dD]WS(Bn)[dL])) |  | 13 | 66 | 170
4 | CC(C)C[C@@H]1NC(=O)[C@H](Cc2c[nH]c3ccccc23)NC(=O)[C@@H](CC(=O)O)NC(=O)[C@@H](Cc2c[nH]c3ccccc23)NC(=O)[C@H](CC(C)C)NC(=O)[C@@H](CC(C)C)NC1=O [Example 35, Cyclo[--D--Asp--Trp--Leu--D--Leu--Leu--D--Trp--]] (cyclo(L[dL]L[dW][dD]W)) |  | 9.1 | 52 | 24
5 | cyclo[-D-Asp-Glu(Bzl)-Asp-D-Thg(2)-Leu-D-Trp-] [Example 89] |  | 750 | 45 | 71
6 | CC(C)C[C@@H]1NC(=O)[C@@H](CC(C)C)NC(=O)[C@H](CO)NC(=O)[C@H](Cc2c[nH]c3ccccc23)NC(=O)[C@@H](CC(=O)O)NC(=O)[C@@H](Cc2c[nH]c3ccccc23)NC1=O [Example 37, Cyclo[--D--Asp--Trp--Ser--D--Leu--Leu--D--Trp--]] (cyclo(L[dW][dD]WS[dL])) |  | 24 | 22 | 18
7 | CC(C)C[C@H]1NC(=O)[C@H](CC(=O)O)NC(=O)[C@H](C)NC(=O)[C@@H](CC(=O)O)NC(=O)[C@@H](Cc2c[nH]c3ccccc23)NC(=O)[C@H](Cc2c[nH]c3ccccc23)NC1=O [Example 58, Cyclo[--D--Asp--Ala--Asp--D--Leu--Trp--D--Trp--]] (cyclo(AD[dL]W[dW][dD])) |  | 0.7 | 6.7 | 22
8 | CC(C)C[C@@H]1NC(=O)[C@@H](CC(C)C)NC(=O)[C@H](CC(=O)O)NC(=O)[C@H](Cc2cccc3ccccc23)NC(=O)[C@@H](CC(=O)O)NC(=O)[C@@H](Cc2c[nH]c3ccccc23)NC1=O [Example 23, Cyclo[--D--Asp--Nal(1)--Asp--D--Leu--Leu--D--Trp--]] (cyclo([1Nal]D[dL]L[dW][dD])) |  | 8.3 | 11 | 7.7
9 | CC(C)C[C@@H]1NC(=O)[C@@H](c2ccccc2)NC(=O)[C@H](CC(=O)O)NC(=O)[C@H](Cc2c[nH]c3ccccc23)NC(=O)[C@@H](CC(=O)O)NC(=O)[C@@H](Cc2c[nH]c3ccccc23)NC1=O [Example 45, Cyclo[--D--Asp--Trp--Asp--D--Phg--Leu--D--Trp--]] (cyclo(D[dPhg]L[dW][dD]W)) |  | 87 | 74 | 180
10 | CC(C)C[C@@H]1NC(=O)[C@@H](Cc2cccs2)NC(=O)[C@H](CC(=O)O)NC(=O)[C@H](Cc2c[nH]c3ccccc23)NC(=O)[C@@H](CC(=O)O)NC(=O)[C@@H](Cc2c[nH]c3ccccc23)NC1=O [Example 50, Cyclo[--D--Asp--Trp--Asp--D--Thi--Leu--D--Trp--]] (cyclo(D[d2Thi]L[dW][dD]W)) |  | 4 | 350 | 57
11 | CC(C)C[C@@H]1NC(=O)[C@@H](CC(C)C)NC(=O)[C@H](CC(=O)O)NC(=O)[C@H](Cc2c[nH]c3ccccc23)NC(=O)[C@@H](CC(=O)O)NC(=O)[C@@H](Cc2c[nH]c3ccccc23)NC1=O [Example 8, cyclo[-D-Asp-Trp-Asp-D-Leu-Leu-D-Trp-]] (cyclo(D[dL]L[dW][dD]W)) |  | 76 | 100 | 100
